Assay results as given in patent US20260364174A1, “Purpurin Analogs for Use in Photodynamic Therapy” (RMW Cho Group Limited, priority 2023, published 2026).

Key:
[1] = test system: SKOV3 ovarian cancer cells; test: Therapeutic index (phototoxicity IC90 vs dark toxicity IC10); assay type: cell-based, human
Description: (§1) The phototoxicity and inherent cytotoxicity (i.e. “dark toxicity”) of purpurin analogues were assessed as previously using SKOV3 ovarian cancer cells. For comparative purposes, purpurin analogues were compared against chlorin e4 disodium and Talaporfin sodium, a clinically approved photosensitizer used in the photodynamic treatment of lung cancers. Phototoxicity IC90 values and dark toxicity IC10 values were calculated using a log[inhibitor]-vs normalized response dose curve with variable slope, using the formula Y=100/(1+(IC90/X)^HillSlope (phototoxicity IC90)) or Y=100/(1+(IC10/X)^HillSlope (dark toxicity IC10)).
To evaluate the therapeutic potential of purpurin analogues, the therapeutic index (TI) was calculated. TI provides a quantitative measurement to describe relative drug safety, by comparing the drug concentration required for desirable effects versus the concentration resulting in undesirable off-target toxicity. TI was calculated using phototoxicity IC90 vs dark toxicity IC10.

[2] = test system: SKOV3 ovarian cancer cells; test: Phototoxicity: % viable SKOV3 cells (AlamarBlue) after incubation with photosensitizer and 680 nm LED activation; assay type: cell-based; details: Homo sapiens, SK-OV-3, light or radiation study, 24 h uptake, 50 mW/cm^2 for 5 mins (15 J/cm^2), viability after further 24 h
Description: (§2) Photosensitizers (e.g. purpurin analogue, chlorin e4 disodium (provided by Advanced Molecular Technologies, Scoresby) or Talaporfin sodium (purchased from Focus Bioscience cat #HY-16477-5MG)) were resuspended in 100% dimethylsulfoxide (DMSO) at a concentration of 5.5 mM. Samples were stored at 4 °C protected from light.
(§3) For in vitro experiments, photosensitizers (stock solution 5.5 mM in 100% DMSO) were diluted 1:100 in concentrated excipient solution (final 55 μM photosensitizer in 10% w/v Kollidon-12, 42.4% w/v polysorbate 80, 40% w/v ethanol, 1.0% DMSO). Serial dilutions were prepared in cell culture media (Dulbecco's Modified Eagle Medium/Nutrient Mixture F-12 (DMEM/F-12)) supplemented with 10% v/v Fetal Bovine Serum, 100 U/mL penicillin, 100 μg/mL streptomycin and the same excipient solution at a constant 1:55 dilution.
(§4) Human ovarian cancer cell line SKOV3 (ATCC #HTB-77) was maintained in Dulbecco's Modified Eagle Medium/Nutrient Mixture F-12 (DMEM/F-12), supplemented with […] Fetal Bovine Serum, 100 U/mL penicillin and 100 μg/mL streptomycin. Monolayer cultures were grown in a humidified incubator at 37 °C with 5% CO2. Once cells had reached ~80% confluence, spent media was replaced with media containing photosensitizer at the required concentration and cells were incubated for the desired period of time to allow photosensitizer uptake.
(§5) All data were analysed using GraphPad PRISM v8.3.1 (549) (GraphPad Software, CA). Spectral absorbance and viability measurements were normalized in the range 0-100%, with a minimum of 0 and a maximum value determined from the dataset. Dose response was determined using a sigmoidal four-point non-linear regression with variable slope, and IC10 or IC90 calculated for each compound. All data are shown as mean±SD (where appropriate).
(§6) SKOV3 cells were seeded in 96-well black wall plates (Greiner #655090) at a cell density of 5000 cells in 100 μl culture medium per well. On reaching ~60% confluence, media was aspirated and replaced with fresh media containing the relevant purpurin analogue from 0-100 μM in DMSO. Cells were incubated for a further 24 hours, allowing uptake of purpurin analogues.
To test for phototoxicity, cells incubated with purpurin analogues ([…] in DMSO) had culture media replaced after 24 hours (as above) and were then exposed to a 680 nm light-emitting diode (LED) panel (Invion) with optical power density at 50 mW/cm^2 for 5 mins (total 15 J/cm^2). Laser and LED exposure induce an equivalent response in relation to phototoxicity. Following activation, cells were cultured for a further 24 hours. Media was then replaced with fresh media containing AlamarBlue, and % viable cells remaining assessed as above. Controls included cells treated with purpurin analogues but not activated by laser light; cells without purpurin analogue treatment but with laser light; and untreated controls. All measurements were made in quadruplicate.
as §1

[3] = test system: SKOV3 ovarian cancer cells; test: Inherent cytotoxicity (dark toxicity): % viable SKOV3 cells (AlamarBlue) without light; assay type: cell-based, human; details: 24 h incubation, no light
Description: as §2, §3, §4, §5, §6
To test for inherent cytotoxicity (i.e. “dark toxicity”) of the purpurin analogues, the culture media was replaced after 24 hours with fresh media containing 10% (v/v) AlamarBlue Cell Viability Reagent (ThermoFisher) and cells incubated at 37 °C for 6 hours. Untreated cells were used as a control. Fluorescence (Ex 555 nm/Em 596 nm) was measured using a CLARIOstar Plus Microplate Readear (BMG Labtech), and cytotoxicity assessed according to the % viable cells remaining. All measurements were made in quadruplicate.
as §1

[4] = test system: TAA- or CCl4-induced acute liver injuries; details: mice; cited from earlier work
[5] = test system: indomethacin-induced gastric lesions; details: rats; cited from earlier work

| SMILES | Therapeutic Index [1] | IC90 [2] [nM] | Dark toxicity (IC10) [3] [nM] | protective effect against TAA- or CCl4-induced acute liver injuries [4] | protective effect against indomethacin-induced gastric lesions [5] |
| --- | --- | --- | --- | --- | --- |
| C=Cc1c(C)c2cc3nc(c(C)c4[nH]c(cc5nc(cc1[nH]2)C(C)=C5CC)c(C)c4C(=O)O)[C@@H](CCC(=O)O)[C@@H]3C [Chlorin e4 disodium, chlorin e4 disodium, reference compound] | 1.89 | 21300 | 40230 |  |  |
| C=Cc1c(C)c2cc3nc(c(C)c4nc(cc5[nH]c(cc1[nH]2)c(C)c5CC)C(C)=C4C(=O)O)[C@@H](CCC(=O)O)[C@@H]3C [Chlorin e4] |  |  |  | protective effect | protective effect against indomethacin-induced gastric lesions in rats |
| CCCCCCN1C(=O)c2c3nc(cc4[nH]c(cc5nc(cc6[nH]c2c(c6C)C1=O)C(CC)=C5C)c(COC(=O)NCCC[P+](c1ccccc1)(c1ccccc1)c1ccccc1)c4C)[C@@H](C)[C@@H]3CCC(=O)OC [Compound 1, purpurin 18 13-(N-(3-triphenylphosphoniumpropyl)bromide)carbamate N-hexylimide methyl ester] | 1731.09 | 46 | 79630 |  |  |
| CCCCCCN1C(=O)c2c3nc(cc4[nH]c(cc5nc(cc6[nH]c2c(c6C)C1=O)C(CC)=C5C)c(COC(=O)CCCC[P+](c1ccccc1)(c1ccccc1)c1ccccc1)c4C)[C@@H](C)[C@@H]3CCC(=O)OC [Compound 2, purpurin 18 N-hexylimide 13-(oxopentyl)triphenylphosphonium bromide] | 2875.19 | 27 | 77630 |  |  |
| CCC1=C(C)c2cc3[nH]c(cc4nc(c5c6[nH]c(cc1n2)c(C)c6C(=O)N(CCOCCOC)C5=O)[C@@H](CCC(=O)OC)[C@@H]4C)c(C)c3COC(=O)NCCC[P+](c1ccccc1)(c1ccccc1)c1ccccc1 [Compound 3, purpurin 18 13-(N-(3-triphenylphosphoniumpropyl)bromide)carbamate N-(2-(2-methoxyethoxy)ethyl)imide methyl ester] | 498.43 | 102 | 50840 |  |  |
| C=Cc1c(C)c2cc3nc(c4c5[nH]c(cc6nc(cc1[nH]2)C(C)=C6CC)c(C)c5C(=O)N(CCC[P+](c1ccccc1)(c1ccccc1)c1ccccc1)C4=O)[C@@H](CCC(=O)N(C)CCOCCOC)[C@@H]3C [Compound 4, purpurin 18 N-(3-triphenylphosphoniumpropylbromide)imide N-(2-(2-methoxyethoxy)ethyl)-N-methyl-amide] | 4991.00 | 10 | 49910 |  |  |
| C=Cc1c(C)c2cc3nc(c4c5[nH]c(cc6nc(cc1[nH]2)C(C)=C6CC)c(C)c5C(=O)OC4=O)[C@@H](CCC(=O)NCCC[P+](c1ccccc1)(c1ccccc1)c1ccccc1)[C@@H]3C [Compound 5, purpurin 18 (N-(3-triphenylphosphoniumpropyl)bromide)amide] | 9976.00 | 5 | 49880 |  |  |
| C=Cc1c(C)c2cc3nc(c4c5[nH]c(cc6nc(cc1[nH]2)C(C)=C6CC)c(C)c5C(=O)N(CCOCCOC)C4=O)[C@@H](CCC(=O)NCCC[P+](c1ccccc1)(c1ccccc1)c1ccccc1)[C@@H]3C [Compound 6, purpurin 18 (N-(3-triphenylphosphoniumpropyl)bromide)amide N-(2-(2-methoxyethoxy)ethyl)imide] | 5674.44 | 9 | 51070 |  |  |
| CCCCCCN1C(=O)c2c3nc(cc4[nH]c(cc5nc(cc6[nH]c2c(c6C)C1=O)C(CC)=C5C)c(CN(C)C(=O)CCCC[P+](c1ccccc1)(c1ccccc1)c1ccccc1)c4C)[C@@H](C)[C@@H]3CCC(=O)OC [Compound 7, purpurin 18 N-hexylimide 13-(N-methyl-5-triphenylphosphonium bromidepentanamide) methyl ester] | 2352.38 | 21 | 49400 |  |  |
| C=Cc1c(C)c2cc3nc(c(CC(=O)N[C@@H](CC(=O)O)C(=O)O)c4[nH]c(cc5nc(cc1[nH]2)C(C)=C5CC)c(C)c4C(=O)O)[C@@H](CCC(=O)O)[C@@H]3C [Talaporfin sodium, reference compound] | 0.49 |  | 11100 |  |  |
